Consider 15 compounds from ChEMBL document CHEMBL1201862, “PubChem BioAssay data set” (2004).

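Briefly, cells in 96-well plates were exposed to five compound concentrations for 48 h, and endpoints were estimated by linear interpolation. At the GI50, growth is halved.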 Calls of active or inactive are those of the source. Cut-off read from the data, not from the text of the source: active = GI50 up to about 1.1 µM and inactive = higher. Bounds are passed on as bounds.

Among the test systems are HCT-15; 786-0; LOX IMVI; IGROV-1; A549; SNB-75; Malme-3M; HOP-92; U-251; RXF 393; CCRF-CEM; HCT-116; MOLT-4; SK-OV-3; NCI-H226; CAKI-1.
Assay in all cases: inhibition of tumour cell growth, NCI panel, 48 h

For `Cc1ccccc1C(=O)Oc1ccc(OCc2ccccc2)cc1`, the GI50 in the assay on HCT-15 is 38.6 µM; in the assay with 786-0 it was 51.2 µM (inactive); with LOX IMVI it was 99.1 µM (inactive); in the assay with IGROV-1, > 100 µM (inactive); in the assay on A549, 35.2 µM (inactive); in the assay on SNB-75 it was > 100 µM (inactive). Moreover, the GI50 was > 100 µM (inactive) in the assay with Malme-3M; > 100 µM (inactive) in the assay on HOP-92; > 100 µM (inactive) in the assay on U-251; 39.1 µM (inactive) in the assay on RXF 393; 22.2 µM (inactive) with CCRF-CEM; 53.5 µM (inactive) in the assay with HCT-116. Moreover, the results for the GI50 in the assay on MOLT-4 and with SK-OV-3 were 9.44 µM (inactive) and > 100 µM (inactive), respectively.

As to `N#CCCN(CCC#N)c1ccc(/C=C(/NC(=O)c2cc([N+](=O)[O-])ccc2Cl)C(=O)NN)cc1`, the GI50 in the assay with HCT-15 is above 100 µM; in the assay on 786-0 it was > 100 µM (inactive); with LOX IMVI, 41.4 µM (inactive); in the assay with IGROV-1, > 100 µM (inactive); with A549, > 100 µM (inactive); with NCI-H226 it was > 100 µM (inactive). Further, the GI50 with SNB-75 was > 100 µM (inactive); with CAKI-1, > 100 µM (inactive); in the assay with Malme-3M it was > 100 µM (inactive); in the assay on U-251, > 100 µM (inactive); in the assay with RXF 393, > 100 µM (inactive); in the assay with CCRF-CEM, 47.5 µM (inactive). The figures for the GI50 in the assay on HCT-116, with MOLT-4 and with SK-OV-3 were > 100 µM (inactive), 44.8 µM (inactive) and > 100 µM (inactive), respectively.

Regarding `Cc1cccc(NC2=NC(=O)C(CC(=O)Nc3cccc(C)c3C)S2)c1` (stereo not drawn), the GI50 in the assay with 786-0, in the assay with LOX IMVI, in the assay with IGROV-1, in the assay on A549, with NCI-H226 and in the assay with SNB-75 was > 100 µM (inactive) in each case. Moreover, the GI50 in the assay with Malme-3M was > 100 µM (inactive); with HOP-92 it was 21.2 µM (inactive); in the assay with U-251 it was > 100 µM (inactive); in the assay on RXF 393 it was > 100 µM (inactive); in the assay on CCRF-CEM, 25.8 µM (inactive); in the assay with HCT-116, > 100 µM (inactive). Moreover, the GI50 in the assay with MOLT-4 is 24.3 µM (inactive).

For `Oc1ccccc1/C=N/Cc1ccco1`, the GI50 with 786-0, in the assay on LOX IMVI, with IGROV-1, in the assay with A549, in the assay on NCI-H226 and with SNB-75 was > 100 µM (inactive) each time. The GI50 with Malme-3M, in the assay on U-251, in the assay with RXF 393, with CCRF-CEM, in the assay on HCT-116 and in the assay with MOLT-4 was > 100 µM (inactive) in each case. Further, the GI50 in the assay with SK-OV-3 is > 100 µM (inactive).

As to `Nc1ccc2ncc(Nc3ccc(F)cc3)nc2c1`, the GI50 in the assay on HCT-15 is above 100 µM; with 786-0, > 100 µM (inactive); in the assay on LOX IMVI, > 100 µM (inactive); in the assay with A549, > 100 µM (inactive); with NCI-H226 it was 37.5 µM (inactive); in the assay on SNB-75, > 100 µM (inactive). In addition, the GI50 with CAKI-1 is > 100 µM (inactive); with Malme-3M, > 100 µM (inactive); with U-251, > 100 µM (inactive); in the assay with CCRF-CEM, 56.8 µM (inactive); in the assay on HCT-116 it was > 100 µM (inactive); in the assay on MOLT-4 it was 27.7 µM (inactive).

Turning to `Cc1nc2c(sc(=S)n2-c2ccccc2)c2nc3ccccc3n12`, the GI50 in the assay on HCT-15 is above 100 µM; in the assay with 786-0 it was > 100 µM (inactive); in the assay with LOX IMVI it was > 100 µM (inactive); with IGROV-1 it was > 100 µM (inactive); in the assay with NCI-H226 it was > 100 µM (inactive); in the assay on SNB-75, > 100 µM (inactive). The GI50 in the assay on CAKI-1, in the assay on Malme-3M, in the assay with U-251, with RXF 393, in the assay with CCRF-CEM and with MOLT-4 was > 100 µM (inactive) throughout. In addition, the GI50 in the assay with SK-OV-3 is > 100 µM (inactive).

With `NC(=O)C12CC3CC(CC(F)(C3)C1)C2`, the GI50 in the assay on 786-0 is > 100 µM (inactive); in the assay with LOX IMVI, > 100 µM (inactive); in the assay with IGROV-1 it was > 100 µM (inactive); in the assay on A549, > 100 µM (inactive); with SNB-75, 57.4 µM (inactive); in the assay on Malme-3M, > 100 µM (inactive). Further, the GI50 in the assay on HOP-92, in the assay on U-251, in the assay with RXF 393, with CCRF-CEM, in the assay on HCT-116 and in the assay with MOLT-4 was > 100 µM (inactive) each time. In the assay on SK-OV-3, the GI50 is > 100 µM (inactive).

`Cc1ccc(S(=O)(=O)C2=c3nc4ccccc4cc3=C3C(=O)c4ccccc4C(=O)C32)cc1` (stereo not drawn): the GI50 was above 100 µM in the assay with HCT-15; > 100 µM (inactive) in the assay on 786-0; > 100 µM (inactive) with LOX IMVI; > 100 µM (inactive) with IGROV-1; > 100 µM (inactive) with A549; > 100 µM (inactive) in the assay with NCI-H226. The GI50 in the assay on SNB-75 is 43.3 µM (inactive); in the assay on CAKI-1, > 100 µM (inactive); with Malme-3M, > 100 µM (inactive); in the assay on HOP-92, > 100 µM (inactive); with U-251 it was > 100 µM (inactive); with CCRF-CEM it was > 100 µM (inactive). In addition, the GI50 was > 100 µM (inactive) with HCT-116, > 100 µM (inactive) in the assay on MOLT-4 and 0.394 µM (active) in the assay with SK-OV-3.

Turning to `CC(=O)OCC1OC(n2c(=S)n(-c3ccccc3)c(=O)c3cc(Br)ccc32)C(OC(C)=O)C1OC(C)=O` (stereo not drawn), the GI50 is above 100 µM in the assay with HCT-15; > 100 µM (inactive) in the assay on 786-0; > 100 µM (inactive) in the assay on LOX IMVI; > 100 µM (inactive) in the assay on IGROV-1; > 100 µM (inactive) in the assay on A549; > 100 µM (inactive) in the assay with NCI-H226. Besides, the GI50 with SNB-75 is 83.9 µM (inactive); in the assay with CAKI-1, 11.6 µM (inactive); in the assay on Malme-3M it was > 100 µM (inactive); with HOP-92 it was > 100 µM (inactive); in the assay with U-251, > 100 µM (inactive); in the assay with RXF 393 it was > 100 µM (inactive). In addition, the GI50 in the assay with HCT-116 was > 100 µM (inactive); in the assay on MOLT-4, 53.8 µM (inactive); with SK-OV-3, > 100 µM (inactive).

For the compound `C=CCC1C(=O)C(C(=O)OC)N2CCc3c([nH]c4ccccc34)C12` (stereo not drawn), the GI50 in the assay on HCT-15 was above 100 µM; in the assay on 786-0 it was > 100 µM (inactive); with IGROV-1, > 100 µM (inactive); in the assay with A549, > 100 µM (inactive); with CAKI-1 it was > 100 µM (inactive); with Malme-3M, > 100 µM (inactive). Also, the GI50 with HOP-92 is 57.4 µM (inactive); with U-251, > 100 µM (inactive); in the assay with RXF 393, > 100 µM (inactive); in the assay with CCRF-CEM it was 95.5 µM (inactive); with HCT-116 it was > 100 µM (inactive); with MOLT-4, 64.9 µM (inactive). The GI50 in the assay with SK-OV-3 was > 100 µM (inactive).

Turning to `CC(=O)Oc1c(-c2ccccc2)[nH]c2cc([N+](=O)[O-])c(/C(Cl)=C/c3ccccc3)cc12`, the GI50 was 11.2 µM (inactive) in the assay with 786-0; 9.46 µM (inactive) with IGROV-1; 6.15 µM (inactive) in the assay with A549; 4 µM (inactive) with NCI-H226; 15.6 µM (inactive) in the assay on SNB-75; 10.7 µM (inactive) with CAKI-1. Also, the GI50 in the assay on Malme-3M was 4.1 µM (inactive); in the assay on HOP-92, 3.65 µM (inactive); in the assay on U-251 it was 4.52 µM (inactive); in the assay on CCRF-CEM it was 3.61 µM (inactive); in the assay on HCT-116 it was 3.91 µM (inactive); with MOLT-4 it was 2.84 µM (inactive). In addition, the GI50 in the assay with SK-OV-3 is 26.9 µM (inactive).

With `O=C(CC/C(CC(=O)c1ccc(Cl)cc1)=N/O)Nc1ccc(Cl)c(Cl)c1`, the GI50 with HCT-15 is 48.1 µM; in the assay with 786-0, > 100 µM (inactive); with IGROV-1 it was 47.6 µM (inactive); in the assay with A549 it was > 100 µM (inactive); in the assay on NCI-H226, > 100 µM (inactive); with SNB-75, 26 µM (inactive). The GI50 was 86.1 µM (inactive) with CAKI-1; > 100 µM (inactive) in the assay with Malme-3M; 82.4 µM (inactive) in the assay with HOP-92; > 100 µM (inactive) with U-251; > 100 µM (inactive) in the assay with CCRF-CEM; > 100 µM (inactive) with HCT-116. Besides, the GI50 in the assay on MOLT-4 is 53.2 µM (inactive); with SK-OV-3, > 100 µM (inactive).

Turning to `COc1ccc(CC(=O)NCCc2ccc(OC)c(OC)c2)cc1Br`, the GI50 was > 100 µM (inactive) in the assay on 786-0; > 100 µM (inactive) with LOX IMVI; > 100 µM (inactive) with IGROV-1; > 100 µM (inactive) in the assay with A549; 41.5 µM (inactive) in the assay with NCI-H226; > 100 µM (inactive) in the assay with CAKI-1. The GI50 with Malme-3M, in the assay on HOP-92, in the assay with U-251, in the assay with RXF 393, in the assay on CCRF-CEM and with MOLT-4 was > 100 µM (inactive) throughout. The GI50 in the assay with SK-OV-3 was > 100 µM (inactive).

Take `Nc1nc(N)c(CCCCc2ccccc2)c(/C=C/c2ccc([N+](=O)[O-])cc2)n1`: the GI50 in the assay on HCT-15 was 1.25 µM; in the assay on 786-0 it was 0.785 µM (active); in the assay on LOX IMVI it was 1.85 µM (inactive); in the assay with IGROV-1, 2.8 µM (inactive); in the assay with A549 it was 0.388 µM (active); in the assay with NCI-H226, 26.1 µM (inactive). Also, the GI50 with SNB-75 was 2.47 µM (inactive); in the assay with CAKI-1 it was 3.92 µM (inactive); in the assay with Malme-3M it was 1.67 µM (inactive); in the assay on HOP-92, 0.0182 µM (active); in the assay on U-251, 2.13 µM (inactive); in the assay with CCRF-CEM, 1.69 µM (inactive). Besides, the GI50 was 1.16 µM (inactive) with HCT-116, 1.14 µM (inactive) in the assay with MOLT-4 and 6.67 µM (inactive) in the assay with SK-OV-3.

With `O=C1OC(c2ccccc2)(c2ccccc2)CC1CN1CCOCC1` (stereo not drawn), the GI50 in the assay with HCT-15 was 16.1 µM; in the assay on 786-0, 16.7 µM (inactive); in the assay on LOX IMVI, 11.4 µM (inactive); in the assay with IGROV-1, > 100 µM (inactive); with A549, 10.7 µM (inactive); in the assay with SNB-75, 13.9 µM (inactive). For the same compound, the GI50 was 13.5 µM (inactive) in the assay on Malme-3M; 25.4 µM (inactive) in the assay with U-251; 2.77 µM (inactive) in the assay with CCRF-CEM; 12.8 µM (inactive) in the assay on HCT-116; 24.5 µM (inactive) in the assay on MOLT-4; 26.5 µM (inactive) with SK-OV-3.
